Results published in PubChem BioAssay (NCI).
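Assay format: 96-well plates, 48-hour exposure. TGI: total growth inhibition.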

Columns and labels:
Test in all cases: NCI-60 cell line screen, 48 h
MALME-3M melanoma = system: MALME-3M melanoma
RXF 393 renal = system: RXF 393 renal
OVCAR-4 ovarian = system: OVCAR-4 ovarian
NCI/ADR-RES ovarian = system: NCI/ADR-RES ovarian
UACC-257 melanoma = system: UACC-257 melanoma
NCI-H522 lung = system: NCI-H522 lung
MDA-MB-435 = system: MDA-MB-435
BT-549 breast = system: BT-549 breast
SF-295 CNS = system: SF-295 CNS
EKVX NSCLC = system: EKVX NSCLC
HCT-15 colon = system: HCT-15 colon
SK-MEL-2 melanoma = system: SK-MEL-2 melanoma
HOP-62 NSCLC = system: HOP-62 NSCLC
COLO 205 colon = system: COLO 205 colon
K-562 leukemia = system: K-562 leukemia
HL-60(TB) leukemia = system: HL-60(TB) leukemia
PC-3 prostate = system: PC-3 prostate
SW-620 colon = system: SW-620 colon
SF-268 CNS = system: SF-268 CNS
TK-10 renal = system: TK-10 renal
DU-145 prostate = system: DU-145 prostate
KM12 colon = system: KM12 colon
ACHN renal = system: ACHN renal
RPMI-8226 leukemia = system: RPMI-8226 leukemia
NCI-H226 lung = system: NCI-H226 lung
OVCAR-8 ovarian = system: OVCAR-8 ovarian
A549 NSCLC = system: A549 NSCLC
NCI-H460 lung = system: NCI-H460 lung
OVCAR-3 ovarian = system: OVCAR-3 ovarian
U251 CNS = system: U251 CNS
HCT-116 colon = system: HCT-116 colon
MCF7 breast = system: MCF7 breast
OVCAR-5 ovarian = system: OVCAR-5 ovarian
CAKI-1 renal = system: CAKI-1 renal
SR leukemia = system: SR leukemia
HT29 colon = system: HT29 colon
CCRF-CEM leukemia = system: CCRF-CEM leukemia
786-0 renal = system: 786-0 renal
T-47D breast = system: T-47D breast
SN12C renal = system: SN12C renal
M14 melanoma = system: M14 melanoma
UO-31 renal = system: UO-31 renal
NCI-H23 lung = system: NCI-H23 lung
HCC-2998 colon = system: HCC-2998 colon
MDA-N = system: MDA-N
MOLT-4 leukemia = system: MOLT-4 leukemia
SNB-19 CNS = system: SNB-19 CNS
UACC-62 melanoma = system: UACC-62 melanoma
SK-MEL-28 melanoma = system: SK-MEL-28 melanoma
IGROV1 ovarian = system: IGROV1 ovarian
SK-MEL-5 melanoma = system: SK-MEL-5 melanoma
MDA-MB-231 breast = system: MDA-MB-231 breast
LOX IMVI melanoma = system: LOX IMVI melanoma
SK-OV-3 ovarian = system: SK-OV-3 ovarian
SNB-75 CNS = system: SNB-75 CNS
SF-539 CNS = system: SF-539 CNS
A498 renal = system: A498 renal

Measured: TGI

NC(=S)N/N=C1\CCCCc2ccccc21
not listed: UACC-62 melanoma | SK-MEL-28 melanoma | IGROV1 ovarian | SK-MEL-5 melanoma | MDA-MB-231 breast | LOX IMVI melanoma | SK-OV-3 ovarian | SNB-75 CNS | SF-539 CNS | A498 renal
> 10 µM: all other assays above

CC(C)(C)OC(=O)NCCc1ccc(N)cc1
not listed: RXF 393 renal | BT-549 breast | SK-MEL-2 melanoma | KM12 colon | NCI-H226 lung | OVCAR-5 ovarian | CAKI-1 renal | 786-0 renal | SN12C renal | NCI-H23 lung | SK-OV-3 ovarian | SNB-75 CNS | SF-539 CNS | A498 renal
> 100 µM: all other assays above

Cc1cc2c(s1)C(N)CC2=O (stereo unspecified)
not listed: OVCAR-4 ovarian | NCI-H522 lung | SF-295 CNS | NCI-H226 lung | NCI-H23 lung | LOX IMVI melanoma
> 100 µM: all other assays above
